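Cultured in 96-well plates, cells were exposed to test compound for 48 hours across five concentrations. GI50: concentration for 50% inhibition of growth.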 Active and inactive are the calls of the source. No stated cut-off is given here; in the data, active = GI50 up to about 1.1 µM and inactive = higher.
How the values were obtained:
Assay in all cases: inhibition of tumour cell growth, NCI panel, 48 h
HT-29 = system: HT-29
SK-MEL-28 = system: SK-MEL-28
UO-31 = system: UO-31
MDA-N = system: MDA-N
IGROV-1 = system: IGROV-1
CAKI-1 = system: CAKI-1
BT-549 = system: BT-549
DU-145 = system: DU-145
HCC 2998 = system: HCC 2998
NCI-H522 = system: NCI-H522
SNB-75 = system: SNB-75
HL-60 = system: HL-60
EKVX = system: EKVX
UACC-62 = system: UACC-62
SR = system: SR
TK-10 = system: TK-10
SF-268 = system: SF-268
CCRF-CEM = system: CCRF-CEM
NCI/ADR-RES = system: NCI/ADR-RES
NCI-H23 = system: NCI-H23
Malme-3M = system: Malme-3M
MCF7 = system: MCF7
SK-OV-3 = system: SK-OV-3
HCT-116 = system: HCT-116
NCI-H460 = system: NCI-H460
786-0 = system: 786-0
SNB-19 = system: SNB-19
SF-295 = system: SF-295
PC-3 = system: PC-3
OVCAR-3 = system: OVCAR-3
RXF 393 = system: RXF 393
A549 = system: A549
UACC-257 = system: UACC-257
ACHN = system: ACHN
MDA-MB-231 = system: MDA-MB-231
NCI-H226 = system: NCI-H226
OVCAR-4 = system: OVCAR-4
HCT-15 = system: HCT-15
COLO 205 = system: COLO 205
HOP-62 = system: HOP-62
SK-MEL-5 = system: SK-MEL-5
M14 = system: M14
OVCAR-5 = system: OVCAR-5
SK-MEL-2 = system: SK-MEL-2
KM12 = system: KM12
MDA-MB-435 = system: MDA-MB-435
SN12C = system: SN12C
K562 = system: K562
MOLT-4 = system: MOLT-4
SW-620 = system: SW-620
LOX IMVI = system: LOX IMVI
HOP-92 = system: HOP-92
U-251 = system: U-251
RPMI-8226 = system: RPMI-8226
SF-539 = system: SF-539
T47D = system: T47D
A498 = system: A498
OVCAR-8 = system: OVCAR-8

Q: Which results are given for `CN1C(=O)[C@](C)(Cc2ccc(F)cc2)N(C(=O)OC(C)(C)C)[C@@H]1C(C)(C)C`?
A: GI50 (HT-29): 22.1 µM (inactive); GI50 (SK-MEL-28): 55.3 µM (inactive); GI50 (UO-31): 33.6 µM (inactive); GI50 (MDA-N): 37.4 µM (inactive); GI50 (IGROV-1): 43.9 µM (inactive); GI50 (CAKI-1): 36.4 µM (inactive); GI50 (BT-549): 34.4 µM (inactive); GI50 (DU-145): 42.3 µM (inactive); GI50 (HCC 2998): 24.3 µM (inactive); GI50 (NCI-H522): 23.1 µM (inactive); GI50 (SNB-75): 29.2 µM (inactive); GI50 (HL-60): 11.4 µM (inactive); GI50 (EKVX): 47.1 µM (inactive); GI50 (UACC-62): 32 µM (inactive); GI50 (SR): 21.2 µM (inactive); GI50 (TK-10): 80.9 µM (inactive); GI50 (SF-268): 55.3 µM (inactive); GI50 (CCRF-CEM): 40.9 µM (inactive); GI50 (NCI/ADR-RES): 20.4 µM (inactive); GI50 (NCI-H23): 33.1 µM (inactive); GI50 (Malme-3M): > 100 µM (inactive); GI50 (MCF7): 22.8 µM (inactive); GI50 (SK-OV-3): 43.9 µM (inactive); GI50 (HCT-116): 30 µM (inactive); GI50 (NCI-H460): 31.5 µM (inactive); GI50 (786-0): 29.3 µM (inactive); GI50 (SNB-19): > 100 µM (inactive); GI50 (SF-295): 20.3 µM (inactive); GI50 (PC-3): 30.5 µM (inactive); GI50 (OVCAR-3): 31.5 µM (inactive); GI50 (RXF 393): 21.3 µM (inactive); GI50 (A549): 42.4 µM (inactive); GI50 (UACC-257): 30.5 µM (inactive); GI50 (ACHN): 37.7 µM (inactive); GI50 (MDA-MB-231): 38.1 µM (inactive); GI50 (NCI-H226): 23.6 µM (inactive); GI50 (OVCAR-4): 43.1 µM (inactive); GI50 (HCT-15): 37.8 µM; GI50 (COLO 205): 19.5 µM (inactive); GI50 (HOP-62): 40.7 µM (inactive); GI50 (SK-MEL-5): 19.6 µM (inactive); GI50 (M14): 41.6 µM (inactive); GI50 (OVCAR-5): > 100 µM (inactive); GI50 (SK-MEL-2): 31.3 µM (inactive); GI50 (KM12): 30.5 µM (inactive); GI50 (MDA-MB-435): 39.3 µM (inactive); GI50 (SN12C): 17.9 µM (inactive); GI50 (K562): 25.6 µM (inactive); GI50 (MOLT-4): 17.9 µM (inactive); GI50 (SW-620): 37.3 µM (inactive); GI50 (LOX IMVI): 21.6 µM (inactive); GI50 (HOP-92): 30.7 µM (inactive); GI50 (U-251): 29.6 µM (inactive); GI50 (RPMI-8226): 22.4 µM (inactive); GI50 (SF-539): 41.2 µM (inactive); GI50 (T47D): 26.7 µM (inactive); GI50 (A498): 23.4 µM (inactive); GI50 (OVCAR-8): 28.8 µM (inactive)
